Laboratory results from ChEMBL document CHEMBL1153692, “Inactivation of HIV-1 protease by a tripeptidyl epoxide” (Bioorg Med Chem Lett, 1992).

Tests used:
[1] = target: Human immunodeficiency virus type 1 protease (Human immunodeficiency virus 1) (UniProt Q72874); test: Concentration of compound for half maximal inactivation rate on protease of Human immunodeficiency virus-1 (HIV-I) was determined
[2] = target: Human immunodeficiency virus type 1 protease (Human immunodeficiency virus 1) (UniProt Q72874); test: Maximal inactivation rate of compound on protease of Human immunodeficiency virus-1 (HIV-I) was determined
[3] = target: Human immunodeficiency virus type 1 protease (Human immunodeficiency virus 1) (UniProt Q72874); test: Half maximal inactivation rate of compound on HIV protease
[4] = target: Human immunodeficiency virus type 1 protease (Human immunodeficiency virus 1) (UniProt Q72874); test: Maximal inactivation rate of compound on HIV protease

| K [1] [µM] | K [2] [min⁻¹] | K [3] [mM] | K [4] [min⁻¹] | SMILES |
| --- | --- | --- | --- | --- |
| 20 | 0.31 | – | – | CC(C)C[C@@H]1O[C@@H]1[C@H](Cc1ccccc1)NC(=O)C(C)NC(Cc1ccccc1)C(=O)C(=O)OCc1ccccc1 (some centres undefined) |
| – | – | 11 | 0.004 | O=[N+]([O-])c1ccc(OCC2CO2)cc1 (centres undefined) |
